{"source": "patent EP2363494A9", "about": "“Improvement of transfection results of non-viral gene delivery systems by influencing the congenital immune system” (Biontex Laboratories Gmbh, priority 2007, dated 2009)", "key": {"HeLa-Luc Zellen [1]": {"test_system": "HeLa-Luc Zellen", "experiment": "Luciferase assay after anti-Luciferase siRNA transfection in presence of TLR7/8 agonists (Beispiel 9)", "assay_type": "cell-based", "conditions": "48 h", "method": "Anschließend werden 120 µl Luciferase-Lysispuffer hinzugegeben.\nAlle Messungen wurden dreifach durchgeführt.\nVon der Imiquimod-Arbeitslösung werden in A1 0,78 µl (=0,25 µg/ml Endkonzentration), in A2 15,5 µl (=5µg/ml) und in A3 31 µl (=10µg/ml) pipettiert. Von der ssRNA40/LyoVec-Arbeitslösung werden in B1 0,78 µl (=0,5 µg/ml Endkonzentration ssRNA40), in B2 15,5 µl (=5µg/ml) und in B3 31µl (=10µg/ml) pipettiert. Nach der Zugabe der Agonisten werden die beiden 48 Well Platten für 48 Stunden im CO2-Inkubator inkubiert."}, "HeLa-Luc Zellen [2]": {"test_system": "HeLa-Luc Zellen", "experiment": "Trypan blue vitality determination after siRNA transfection in presence of TLR7/8 agonists (Beispiel 9)", "assay_type": "cell-based", "conditions": "Trypanblau after 48 h, Blindprobe 95,9", "procedure": "Zunächst werden die ersten 5 Wells der ersten 3 Reihen einer 48 Well Platte mit jeweils 30 µl PBS gefüllt. Die Stocklösung der anti-Luciferase-siRNA und der non-specific-control-siRNA wird mit PBS auf eine Konzentration von 1 pmol/10 µl eingestellt. Anschließend werden jeweils 10 µl der Arbeitslösung der anti-Luciferase-siRNA in die ersten 3 Wells der der ersten drei Reihen der 48 Well Platte pipettiert. In die jeweils vierten Wells werden jeweils 10 µl der Arbeitslösung der non-specific-control-siRNA pipettiert. Das Metafectene Pro Reagenz wird mit PBS 1:300 verdünnt. Von dieser Verdünnung werden jeweils 20 µl in jedes Well mit siRNA gegeben. Anschließend werden die Lipoplexe für 20 Minuten bei Raumtemperatur inkubiert. Danach werden pro Well 250 µl Zellsuspension zugegeben. Analog wird eine zweite Platte bestückt.\nIn die ersten 2 Spalten der beiden 48 Well Platte werden 2 verschiedene Agonisten hinzugegeben. Dabei werden 3 verschiedene Arbeitskonzentrationen der Agonisten verwendet. Die Agonisten liegen lyophilisiert vor. Sie werden mit endotoxin-freiem Wasser zu Stocklösungen mit der Konzentration 100µg/ml gelöst. Die Stocklösungen werden jeweils 1:10 mit Wasser zu Arbeitslösungen verdünnt.\nVon der ssRNA40/LyoVec-Arbeitslösung werden in B1 0,78 µl (=0,5 µg/ml Endkonzentration ssRNA40), in B2 15,5 µl (=5µg/ml) und in B3 31µl (=10µg/ml) pipettiert. Nach der Zugabe der Agonisten werden die beiden 48 Well Platten für 48 Stunden im CO2-Inkubator inkubiert.\nNach einer Inkubationszeit von 48 Stunden werden die Zellen einer Platte trypsiniert und mittels einer Neubauer-Zählkammer eine Vitalitätbestimmung mit Trypanblau für jedes Well durchgeführt.\nEs wurden zwischen 40 und 70 Zellen ausgewertet."}, "HeLa-Luc Zellen [3]": {"test_system": "HeLa-Luc Zellen", "experiment": "Luciferase assay after anti-Luciferase siRNA transfection in presence of kinase inhibitors (Beispiel 8)", "conditions": "2 h before anti-Luciferase-siRNA/Metafectene Pro lipoplex"}, "HeLa Zellen": {"test_system": "HeLa Zellen", "conditions": "Vorinkubationszeit 2h, inhibitor replaced and transfection repeated on day 3, Entwicklungszeit 10 min, 0µM well 0,63", "procedure": "Die Effizienz der Transfektion wird mit dem β-Galaktosidase Assay Kit nach Vorgaben des Herstellers durchgeführt. Die Platten werden so lange entwickelt bis im Mikroplate-Reader eine Gelbfärbung mit einer Absorption von 1-2 gemessen wird und anschließend sofort gestoppt. Die Inkubationszeit wird anschließend notiert. Die Werte werden mit dem Mikroplate-Reader ausgelesen, und der Mittelwert gebildet.\n1. Tag: Es werden HeLa Zellen in eine 48 Well Platte ausgesät.\n1 mg Inhibitor wird in 100 µl DMSO gelöst (Stocklösung). Anschließend wird mit PBS 1:20 verdünnt (Arbeitslösung). Anschließend werden die Wells der 48 Well Platte mit folgenden Mengen Inhibitor versorgt:\nAnschließend werden die Lipoplexe hergestellt. […] Jetzt werden beide Lösungen gemischt und 15 min inkubiert. Am Ende werden jeweils 50 µl der Lipoplexlösung in jedes Well gegeben.\nDie Schritte Lipoplexherstellung und Transfektion werden ohne Inkubationszeit wiederholt.\nAnalog Beispiel 1 (mit halben Mengen)"}}, "note": "Read-outs that look alike come from different tables or passages of the source."}
{"smiles": "CC(C)Cn1cnc2c(N)nc3ccccc3c21", "note": "[Imiquimod, 1-(2-methylpropyl)-1H-imidazol[4,5-c]quinolin-4-amine]", "values": [{"measurement": "Luciferase Assay, Mittelwert von 3x3", "setting": "HeLa-Luc Zellen [1]; Imiquimod 0,25 µg/ml Endkonzentration (0,5µg/ml in the 30th table) + anti-Luciferase-siRNA/Metafectene Pro, same plate row: siRNA alone 1604, non-specific control 3016, blank 2936", "value": 676, "unit": "RLU/µl Zellextrakt/sec"}, {"measurement": "Luciferase Assay, Mittelwert von 3x3", "setting": "HeLa-Luc Zellen [1]; Imiquimod 5µg/ml + anti-Luciferase-siRNA/Metafectene Pro, same plate row: siRNA alone 1302, non-specific control 2753, blank 2673", "value": 349, "unit": "RLU/µl Zellextrakt/sec"}, {"measurement": "Luciferase Assay, Mittelwert von 3x3", "setting": "HeLa-Luc Zellen [1]; Imiquimod 10µg/ml + anti-Luciferase-siRNA/Metafectene Pro, same plate row: siRNA alone 1481, non-specific control 2822, blank 2476", "value": 116, "unit": "RLU/µl Zellextrakt/sec"}, {"measurement": "Vitalität", "setting": "HeLa-Luc Zellen [2]; Imiquimod 0,5µg/ml + anti-Luciferase-siRNA/Metafectene Pro", "value": "98,6%"}, {"measurement": "Vitalität", "setting": "HeLa-Luc Zellen [2]; Imiquimod 5µg/ml + anti-Luciferase-siRNA/Metafectene Pro", "value": "88,7%"}, {"measurement": "Vitalität", "setting": "HeLa-Luc Zellen [2]; Imiquimod 10µg/ml + anti-Luciferase-siRNA/Metafectene Pro", "value": "88,6%"}]}
{"smiles": "C[S+]([O-])c1ccc(-c2nc(-c3ccncc3)c(-c3ccc(F)cc3)[nH]2)cc1", "note": "(stereo not shown) [SB203580]", "values": [{"measurement": "Luciferase Assay, Mittelwert von 3x3 Messungen", "setting": "HeLa-Luc Zellen [3]; SB203580 5µM, one transfection, 0µM 1027, non-specific-control-siRNA 2029, untransfected 2504", "value": 693, "unit": "RLU/µl Zellextrakt/sec"}, {"measurement": "Luciferase Assay, Mittelwert von 3x3 Messungen", "setting": "HeLa-Luc Zellen [3]; SB203580 5µM, transfection repeated on day 3, 0µM 976, non-specific-control-siRNA 2135, untransfected 2531", "value": 696, "unit": "RLU/µl Zellextrakt/sec"}, {"measurement": "Luciferase Assay, Mittelwert von 3x3 Messungen", "setting": "HeLa-Luc Zellen [3]; SB203580 10µM, one transfection, 0µM 1027, non-specific-control-siRNA 2029, untransfected 2504", "value": 747, "unit": "RLU/µl Zellextrakt/sec"}, {"measurement": "Luciferase Assay, Mittelwert von 3x3 Messungen", "setting": "HeLa-Luc Zellen [3]; SB203580 10µM, transfection repeated on day 3, 0µM 976, non-specific-control-siRNA 2135, untransfected 2531", "value": 656, "unit": "RLU/µl Zellextrakt/sec"}, {"measurement": "Luciferase Assay, Mittelwert von 3x3 Messungen", "setting": "HeLa-Luc Zellen [3]; SB203580 20µM, one transfection, 0µM 1027, non-specific-control-siRNA 2029, untransfected 2504", "value": 630, "unit": "RLU/µl Zellextrakt/sec"}, {"measurement": "Luciferase Assay, Mittelwert von 3x3 Messungen", "setting": "HeLa-Luc Zellen [3]; SB203580 20µM, transfection repeated on day 3, 0µM 976, non-specific-control-siRNA 2135, untransfected 2531", "value": 617, "unit": "RLU/µl Zellextrakt/sec"}, {"measurement": "Luciferase Assay, Mittelwert von 3x3 Messungen", "setting": "HeLa-Luc Zellen [3]; SB203580 30µM, one transfection, 0µM 1027, non-specific-control-siRNA 2029, untransfected 2504", "value": 671, "unit": "RLU/µl Zellextrakt/sec"}, {"measurement": "Luciferase Assay, Mittelwert von 3x3 Messungen", "setting": "HeLa-Luc Zellen [3]; SB203580 30µM, transfection repeated on day 3, 0µM 976, non-specific-control-siRNA 2135, untransfected 2531", "value": 587, "unit": "RLU/µl Zellextrakt/sec"}, {"measurement": "Luciferase Assay, Mittelwert von 3x3 Messungen", "setting": "HeLa-Luc Zellen [3]; SB203580 40µM, one transfection, 0µM 1027, non-specific-control-siRNA 2029, untransfected 2504", "value": 669, "unit": "RLU/µl Zellextrakt/sec"}, {"measurement": "Luciferase Assay, Mittelwert von 3x3 Messungen", "setting": "HeLa-Luc Zellen [3]; SB203580 40µM, transfection repeated on day 3, 0µM 976, non-specific-control-siRNA 2135, untransfected 2531", "value": 610, "unit": "RLU/µl Zellextrakt/sec"}]}
{"smiles": "N#CC(=C(/N)Sc1ccccc1N)/C(C#N)=C(/N)Sc1ccccc1N", "note": "[U0126, 1,4-Diamino-2,3-dicyano-1,4-bis(o-amionophenylmercapto)butadiene]", "values": [{"measurement": "Absorption β-Galaktosidase Assay, Mittelwert von 3 Messungen", "setting": "HeLa Zellen; 5µM inhibitor", "value": "0,72"}, {"measurement": "Absorption β-Galaktosidase Assay, Mittelwert von 3 Messungen", "setting": "HeLa Zellen; 10µM inhibitor", "value": "0,92"}, {"measurement": "Absorption β-Galaktosidase Assay, Mittelwert von 3 Messungen", "setting": "HeLa Zellen; 25µM inhibitor", "value": "0,79"}, {"measurement": "Absorption β-Galaktosidase Assay, Mittelwert von 3 Messungen", "setting": "HeLa Zellen; 50µM inhibitor", "value": "0,90"}, {"measurement": "Absorption β-Galaktosidase Assay, Mittelwert von 3 Messungen", "setting": "HeLa Zellen; 75µM inhibitor", "value": "0,97"}, {"measurement": "Luciferase Assay, Mittelwert von 3x3 Messungen", "setting": "HeLa-Luc Zellen [3]; U0126 5µM, one transfection, 0µM 1157, non-specific-control-siRNA 1829, untransfected 1674", "value": 375, "unit": "RLU/µl Zellextrakt/sec"}, {"measurement": "Luciferase Assay, Mittelwert von 3x3 Messungen", "setting": "HeLa-Luc Zellen [3]; U0126 5µM, transfection repeated on day 3, 0µM 1001, non-specific-control-siRNA 2290, untransfected 2249", "value": 641, "unit": "RLU/µl Zellextrakt/sec"}, {"measurement": "Luciferase Assay, Mittelwert von 3x3 Messungen", "setting": "HeLa-Luc Zellen [3]; U0126 10µM, one transfection, 0µM 1157, non-specific-control-siRNA 1829, untransfected 1674", "value": 567, "unit": "RLU/µl Zellextrakt/sec"}, {"measurement": "Luciferase Assay, Mittelwert von 3x3 Messungen", "setting": "HeLa-Luc Zellen [3]; U0126 10µM, transfection repeated on day 3, 0µM 1001, non-specific-control-siRNA 2290, untransfected 2249", "value": 162, "unit": "RLU/µl Zellextrakt/sec"}, {"measurement": "Luciferase Assay, Mittelwert von 3x3 Messungen", "setting": "HeLa-Luc Zellen [3]; U0126 25µM, one transfection, 0µM 1157, non-specific-control-siRNA 1829, untransfected 1674", "value": 268, "unit": "RLU/µl Zellextrakt/sec"}, {"measurement": "Luciferase Assay, Mittelwert von 3x3 Messungen", "setting": "HeLa-Luc Zellen [3]; U0126 25µM, transfection repeated on day 3, 0µM 1001, non-specific-control-siRNA 2290, untransfected 2249", "value": 179, "unit": "RLU/µl Zellextrakt/sec"}, {"measurement": "Luciferase Assay, Mittelwert von 3x3 Messungen", "setting": "HeLa-Luc Zellen [3]; U0126 50µM, one transfection, 0µM 1157, non-specific-control-siRNA 1829, untransfected 1674", "value": 193, "unit": "RLU/µl Zellextrakt/sec"}, {"measurement": "Luciferase Assay, Mittelwert von 3x3 Messungen", "setting": "HeLa-Luc Zellen [3]; U0126 50µM, transfection repeated on day 3, 0µM 1001, non-specific-control-siRNA 2290, untransfected 2249", "value": 171, "unit": "RLU/µl Zellextrakt/sec"}, {"measurement": "Luciferase Assay, Mittelwert von 3x3 Messungen", "setting": "HeLa-Luc Zellen [3]; U0126 75µM, one transfection, 0µM 1157, non-specific-control-siRNA 1829, untransfected 1674", "value": 260, "unit": "RLU/µl Zellextrakt/sec"}, {"measurement": "Luciferase Assay, Mittelwert von 3x3 Messungen", "setting": "HeLa-Luc Zellen [3]; U0126 75µM, transfection repeated on day 3, 0µM 1001, non-specific-control-siRNA 2290, untransfected 2249", "value": 103, "unit": "RLU/µl Zellextrakt/sec"}]}
